Laboratory results as given in publication PMC3626250, “Effects of Borneol on Pharmacokinetics and Tissue Distribution of Notoginsenoside R1 and Ginsenosides Rg1 and Re in Panax notoginseng in Rabbits” (Journal of Analytical Methods in Chemistry, 2013).
Like-named read-outs stand apart in the source and are kept apart here. Blank lines part the entries; values can stand above or below the compound they belong to.

Legend:
[1] = Transport studies across Caco-2 monolayers (P app, efflux ratio); assay type: in vitro ADME; conditions: human; for Papp A→B at 120 min, 500 μM / Papp B→A at 120 min, 500 μM: Caco-2 Model, 500 μM compound; for Papp A→B at 120 min, 500 μM: read-out: P app (apical to basolateral); for Papp B→A at 120 min, 500 μM: read-out: P app (basolateral to apical)
Procedure: Medium was replaced every 2-3 days. […] The vinblastine-selected Caco-2 cells were cultivated in the presence of 10 nM vinblastine to induce P-glycoprotein (P-gp) expression. […] Prior to the transport study, cytotoxicity of NGR1, GRg1, GRe, and Borneol toward Caco-2 cells was determined using MTT assays.
In transport studies, vinblastine-selected Caco-2 cells were seeded on polycarbonate filter of transwells for 18–21 days before starting transport study, and the monolayers with the transepithelial electrical resistance (TEER) values greater than 300 Ωcm^2 were used. Caco-2 monolayers were rinsed twice with Hanks' balanced salt solution (HBSS) and preincubated in HBSS at 37°C for 30 min before starting experiments. To start the experiments, 500 μM of NGR1, GRg1, and GRe in final concentrations were added to the donor side with or without 200 μM Borneol and then incubated at 37°C. […] After each sampling, 0.1 mL of HBSS was added to the receiver chamber to maintain a constant volume. All the experiments were performed five times in duplicate. The collected samples were stored at −20°C until HPLC analysis. During the above transport studies, the TEER values were also monitored before and at the end of each experiment. Apparent permeability coefficients (P app) were then calculated according to the following equation: (1) Papp=(dC/dt×V)/(A×C0), where dC/dt is the rate of the test compound appearing in the receiver chamber, V is the volume of the solution in the receiver chamber, A is the cell monolayer surface area, and C 0 is the initial concentration of the test compound added in the donor chamber.
The efflux ratio (Er) was calculated using the following equation: (2) Er=Papp(basolateral-apical)/Papp(apical-basolateral).

[2] = Stability in plasma samples and tissue homogenates of rabbits; assay type: physicochemical
Procedure: The precision of the assay was determined for the quality control (QC) plasma and tissue […] Intraday precision and accuracy were determined via repeated analysis of the QC plasma and tissue samples within one day (n = 5). Interday precision and accuracy were determined via repeated analysis on five consecutive days. The concentration of each sample was determined using the prepared calibration curve and analyzed on the same day. All stabilities were evaluated at different concentration levels. Short-term stability of NGR1, GRg1, and GRe were assessed by analyzing QC samples kept at 4°C for 4–24 h. Freeze-thaw stability was evaluated at three consecutive freeze-thaw cycles. Long-term stability was studied by analyzing samples during a period of 8 weeks of storage at −70°C.
The stability studies were performed by evaluating small variations in three different conditions.

[3] = Caco-2, Caco-2 monolayers, read-out: efflux ratios (Er)
[4] = Caco-2, efflux ratio P app(basolateral-apical)/P app(apical-basolateral), with or without 200 μM Borneol (see label), read-out: E r
[5] = with or without 200 μM Borneol (see label)

efflux ratio at 120 min, 500 μM [1, 3]: 1 to 1.1
efflux ratio at 120 min, 500 μM [1, 4]: 1.05
Papp A→B at 120 min, 500 μM [1, 5]: 0.546 ± 0.04 ×10⁻⁶ cm/s
Papp B→A at 120 min, 500 μM [1, 5]: 0.573 ± 0.037 ×10⁻⁶ cm/s
SMILES: CC(C)=CCC[C@](C)(O[C@@H]1O[C@H](CO)[C@@H](O)[C@H](O)[C@H]1O)[C@H]1CC[C@]2(C)[C@@H]1[C@H](O)C[C@@H]1[C@@]3(C)CC[C@H](O)C(C)(C)[C@@H]3[C@@H](O[C@@H]3O[C@H](CO)[C@@H](O)[C@H](O)[C@H]3O[C@@H]3O[C@@H](C)[C@H](O)[C@@H](O)[C@H]3O)C[C@]12C [GRe, ginsenoside Re]

efflux ratio at 120 min, 500 μM [1, 3]: 1 to 1.1
efflux ratio at 120 min, 500 μM [1, 4]: 1.05
Papp A→B at 120 min, 500 μM [1, 5]: 0.348 ± 0.042 ×10⁻⁶ cm/s
Papp B→A at 120 min, 500 μM [1, 5]: 0.364 ± 0.029 ×10⁻⁶ cm/s
Remaining, Short-term stability ([2]; kidney homogenate, QC 0.4 μg·mL^−1, 4°C for 4–24 h): 91.5 ± 6.5%
Remaining, Long-term stability ([2]; kidney homogenate, QC 0.4 μg·mL^−1, 8 weeks at −70°C): 90.8 ± 6.1%
Remaining, Freeze-thaw stability ([2]; kidney homogenate, QC 0.4 μg·mL^−1, three freeze-thaw cycles): 90.5 ± 7.8%
Remaining, Short-term stability ([2]; kidney homogenate, QC 3.0 μg·mL^−1, 4°C for 4–24 h): 95.9 ± 4.5%
Remaining, Long-term stability ([2]; kidney homogenate, QC 3.0 μg·mL^−1, 8 weeks at −70°C): 91.6 ± 11.2%
Remaining, Freeze-thaw stability ([2]; kidney homogenate, QC 3.0 μg·mL^−1, three freeze-thaw cycles): 94.7 ± 3.7%
Remaining, Short-term stability ([2]; kidney homogenate, QC 40.0 μg·mL^−1, 4°C for 4–24 h): 102.1 ± 5.7%
Remaining, Long-term stability ([2]; kidney homogenate, QC 40.0 μg·mL^−1, 8 weeks at −70°C): 95.7 ± 4.6%
Remaining, Freeze-thaw stability ([2]; kidney homogenate, QC 40.0 μg·mL^−1, three freeze-thaw cycles): 91.2 ± 10.6%
SMILES: CC(C)=CCC[C@](C)(O[C@@H]1O[C@H](CO)[C@@H](O)[C@H](O)[C@H]1O)[C@H]1CC[C@]2(C)[C@@H]1[C@H](O)C[C@@H]1[C@@]3(C)CC[C@H](O)C(C)(C)[C@@H]3[C@@H](O[C@@H]3O[C@H](CO)[C@@H](O)[C@H](O)[C@H]3O)C[C@]12C [GRg1, ginsenoside Rg1]

Remaining, Short-term stability ([2]; brain homogenate, QC 0.5 μg·mL^−1, 4°C for 4–24 h): 92.3 ± 9.4%
Remaining, Long-term stability ([2]; brain homogenate, QC 0.5 μg·mL^−1, 8 weeks at −70°C): 101.8 ± 6.8%
Remaining, Freeze-thaw stability ([2]; brain homogenate, QC 0.5 μg·mL^−1, three freeze-thaw cycles): 92.8 ± 6.9%
Remaining, Short-term stability ([2]; brain homogenate, QC 5.0 μg·mL^−1, 4°C for 4–24 h): 98.4 ± 4.4%
Remaining, Long-term stability ([2]; brain homogenate, QC 5.0 μg·mL^−1, 8 weeks at −70°C): 90.0 ± 9.5%
Remaining, Freeze-thaw stability ([2]; brain homogenate, QC 5.0 μg·mL^−1, three freeze-thaw cycles): 92.2 ± 8.5%
Remaining, Short-term stability ([2]; brain homogenate, QC 50.0 μg·mL^−1, 4°C for 4–24 h): 103.5 ± 9.2%
Remaining, Long-term stability ([2]; brain homogenate, QC 50.0 μg·mL^−1, 8 weeks at −70°C): 99.0 ± 5.3%
Remaining, Freeze-thaw stability ([2]; brain homogenate, QC 50.0 μg·mL^−1, three freeze-thaw cycles): 95.2 ± 11.4%
Remaining, Short-term stability ([2]; heart homogenate, QC 0.5 μg·mL^−1, 4°C for 4–24 h): 98.2 ± 6.7%
Remaining, Long-term stability ([2]; heart homogenate, QC 0.5 μg·mL^−1, 8 weeks at −70°C): 103.6 ± 6.5%
Remaining, Freeze-thaw stability ([2]; heart homogenate, QC 0.5 μg·mL^−1, three freeze-thaw cycles): 92.8 ± 6.8%
Remaining, Short-term stability ([2]; heart homogenate, QC 5.0 μg·mL^−1, 4°C for 4–24 h): 94.8 ± 9.5%
Remaining, Long-term stability ([2]; heart homogenate, QC 5.0 μg·mL^−1, 8 weeks at −70°C): 92.9 ± 4.2%
Remaining, Freeze-thaw stability ([2]; heart homogenate, QC 5.0 μg·mL^−1, three freeze-thaw cycles): 102.5 ± 10.6%
Remaining, Short-term stability ([2]; heart homogenate, QC 50.0 μg·mL^−1, 4°C for 4–24 h): 100.3 ± 7.5%
Remaining, Long-term stability ([2]; heart homogenate, QC 50.0 μg·mL^−1, 8 weeks at −70°C): 96.6 ± 6.7%
Remaining, Freeze-thaw stability ([2]; heart homogenate, QC 50.0 μg·mL^−1, three freeze-thaw cycles): 96.7 ± 8.7%
Remaining, Short-term stability ([2]; kidney homogenate, QC 0.5 μg·mL^−1, 4°C for 4–24 h): 92.4 ± 4.3%
Remaining, Long-term stability ([2]; kidney homogenate, QC 0.5 μg·mL^−1, 8 weeks at −70°C): 91.1 ± 5.4%
Remaining, Freeze-thaw stability ([2]; kidney homogenate, QC 0.5 μg·mL^−1, three freeze-thaw cycles): 92.2 ± 7.5%
Remaining, Short-term stability ([2]; kidney homogenate, QC 5.0 μg·mL^−1, 4°C for 4–24 h): 95.8 ± 5.6%
Remaining, Long-term stability ([2]; kidney homogenate, QC 5.0 μg·mL^−1, 8 weeks at −70°C): 94.3 ± 2.8%
Remaining, Freeze-thaw stability ([2]; kidney homogenate, QC 5.0 μg·mL^−1, three freeze-thaw cycles): 95.4 ± 8.9%
Remaining, Short-term stability ([2]; kidney homogenate, QC 50.0 μg·mL^−1, 4°C for 4–24 h): 90.8 ± 3.7%
Remaining, Long-term stability ([2]; kidney homogenate, QC 50.0 μg·mL^−1, 8 weeks at −70°C): 96.8 ± 9.5%
Remaining, Freeze-thaw stability ([2]; kidney homogenate, QC 50.0 μg·mL^−1, three freeze-thaw cycles): 80.9 ± 6.7%
Remaining, Short-term stability ([2]; liver homogenate, QC 0.5 μg·mL^−1, 4°C for 4–24 h): 95.1 ± 3.1%
Remaining, Long-term stability ([2]; liver homogenate, QC 0.5 μg·mL^−1, 8 weeks at −70°C): 92.6 ± 9.1%
Remaining, Freeze-thaw stability ([2]; liver homogenate, QC 0.5 μg·mL^−1, three freeze-thaw cycles): 98.9 ± 7.9%
Remaining, Short-term stability ([2]; liver homogenate, QC 5.0 μg·mL^−1, 4°C for 4–24 h): 94.3 ± 6.7%
Remaining, Long-term stability ([2]; liver homogenate, QC 5.0 μg·mL^−1, 8 weeks at −70°C): 96.6 ± 6.4%
Remaining, Freeze-thaw stability ([2]; liver homogenate, QC 5.0 μg·mL^−1, three freeze-thaw cycles): 103.8 ± 8.2%
Remaining, Short-term stability ([2]; liver homogenate, QC 50.0 μg·mL^−1, 4°C for 4–24 h): 95.4 ± 8.6%
Remaining, Long-term stability ([2]; liver homogenate, QC 50.0 μg·mL^−1, 8 weeks at −70°C): 100.9 ± 5.6%
Remaining, Freeze-thaw stability ([2]; liver homogenate, QC 50.0 μg·mL^−1, three freeze-thaw cycles): 99.0 ± 5.0%
Remaining, Short-term stability ([2]; lung homogenate, QC 0.5 μg·mL^−1, 4°C for 4–24 h): 91.2 ± 5.4%
Remaining, Long-term stability ([2]; lung homogenate, QC 0.5 μg·mL^−1, 8 weeks at −70°C): 97.6 ± 6.8%
Remaining, Freeze-thaw stability ([2]; lung homogenate, QC 0.5 μg·mL^−1, three freeze-thaw cycles): 95.8 ± 9.8%
Remaining, Short-term stability ([2]; lung homogenate, QC 5.0 μg·mL^−1, 4°C for 4–24 h): 96.8 ± 8.3%
Remaining, Long-term stability ([2]; lung homogenate, QC 5.0 μg·mL^−1, 8 weeks at −70°C): 89.8 ± 4.6%
Remaining, Freeze-thaw stability ([2]; lung homogenate, QC 5.0 μg·mL^−1, three freeze-thaw cycles): 91.9 ± 9.3%
Remaining, Short-term stability ([2]; lung homogenate, QC 50.0 μg·mL^−1, 4°C for 4–24 h): 95.6 ± 5.9%
Remaining, Long-term stability ([2]; lung homogenate, QC 50.0 μg·mL^−1, 8 weeks at −70°C): 91.6 ± 9.8%
Remaining, Freeze-thaw stability ([2]; lung homogenate, QC 50.0 μg·mL^−1, three freeze-thaw cycles): 96.9 ± 7.5%
Remaining, Short-term stability ([2]; plasma, QC 0.5 μg·mL^−1, 4°C for 4–24 h): 98.0 ± 6.2%
Remaining, Long-term stability ([2]; plasma, QC 0.5 μg·mL^−1, 8 weeks at −70°C): 100.0 ± 8.7%
Remaining, Freeze-thaw stability ([2]; plasma, QC 0.5 μg·mL^−1, three freeze-thaw cycles): 90.4 ± 5.9%
Remaining, Short-term stability ([2]; plasma, QC 5.0 μg·mL^−1, 4°C for 4–24 h): 96.0 ± 8.4%
Remaining, Long-term stability ([2]; plasma, QC 5.0 μg·mL^−1, 8 weeks at −70°C): 94.0 ± 6.8%
Remaining, Freeze-thaw stability ([2]; plasma, QC 5.0 μg·mL^−1, three freeze-thaw cycles): 92.8 ± 6.4%
Remaining, Short-term stability ([2]; plasma, QC 35.0 μg·mL^−1, 4°C for 4–24 h): 99.8 ± 3.3%
Remaining, Long-term stability ([2]; plasma, QC 35.0 μg·mL^−1, 8 weeks at −70°C): 97.0 ± 5.3%
Remaining, Freeze-thaw stability ([2]; plasma, QC 35.0 μg·mL^−1, three freeze-thaw cycles): 96.6 ± 5.5%
SMILES: CC(C)=CCC[C@](C)(O[C@@H]1O[C@H](CO)[C@@H](O)[C@H](O)[C@H]1O)[C@H]1CC[C@]2(C)[C@@H]1[C@H](O)C[C@@H]1[C@@]3(C)CC[C@H](O)C(C)(C)[C@@H]3[C@@H](O[C@@H]3O[C@H](CO)[C@@H](O)[C@H](O)[C@H]3O[C@@H]3OC[C@@H](O)[C@H](O)[C@H]3O)C[C@]12C [NGR1, notoginsenoside R1]
